Results: patent US9580432B2, “Fused pyrimidine compound or salt thereof” (TAIHO PHARMACEUTICAL CO., LTD., priority 2013, dated 2017)

Columns and labels:
A431 cells / TMD8 cells = experiment: Proliferation inhibitory activity against cell lines expressing BTK and EGFR (in vitro), comparison of selectivity; format: cell-based, human; conditions: ratio from GI50 (nM), 3 days culture, CELLTITER GLO
Text: TMD8 cells, which are of a diffuse large B-cell lymphoma cell line expressing BTK, were suspended in RPMI1640 medium (manufactured by Life Technologies Corp.) containing 10% fetal bovine serum. A431 cells, which are of an EGFR-overexpressing, highly activated human epidermoid carcinoma cell line, were suspended in DMEM, high glucose medium (manufactured by Life Technologies Corp.) containing 10% fetal bovine serum. The cell suspensions were inoculated into each well of 384-well flat-bottomed microplates, and the cells were cultured for 1 day at 37° C. in an incubator containing 5% carbon dioxide gas. […] A DMSO solution of the test compounds was diluted with the medium used in the suspension of the each cells, and this was added to each of the wells of the cell culture plates such that the final concentration of DMSO would be 0.2%. The cells were further cultured for 3 days at 37° C. in an incubator containing 5% carbon dioxide gas. […] Proliferation inhibition ratio (%)=(C−T)/(C−C0)×100
T: Luminescence intensity of a well in which the test compound was added
C: Luminescence intensity of a well in which the test compound was not added
C0: Luminescence intensity of a well measured before the addition of the test compound
When a comparison is made between the cell proliferation inhibitory activity against A431 cells that depends on the EGFR proliferation signaling and the cell proliferation inhibitory activity against TMD8 cells that depends on the BTK proliferation signaling, the influence of the respective kinases at a cellular level is able to be evaluated. That is, when the “A431 cell proliferation inhibition ratio/TMD8 cell proliferation inhibition ratio” is calculated, it is contemplated that as the value of the ratio is larger, the selectivity to BTK over EGFR in the cells is higher.

[1] = molecular target: purified recombinant human BTK protein (Homo sapiens (Human), UniProt Q06187); experiment: Measurement of BTK inhibitory activity (in vitro); format: biochemical; conditions: FL-PEPTIDE 2 substrate 1 μM, ATP 45 μM, 40 minutes at 25° C.
Text: With regard to the setting of the conditions for a method for measuring the inhibitory activity of a compound against BTK kinase activity in vitro, it is described in the consumable reagent supplies price list for LabChip (registered trademark) series of PerkinElmer, Inc. that FL-PEPTIDE 2 corresponds to a substrate peptide for the measurement of BTK kinase activity. Therefore, FL-PEPTIDE 2 was used as a substrate. The purified recombinant human BTK protein used in the test was purchased from Carna Biosciences, Inc.
With regard to the measurement of the inhibitory activity of the compounds, firstly, the compounds of the present invention were diluted stepwise with dimethyl sulfoxide (DMSO). Subsequently, BTK protein, a substrate peptide (final concentration was 1 μM), magnesium chloride (final concentration was 10 mM), ATP (final concentration was 45 μM), and a DMSO solution of the compounds of the present invention (final concentration of DMSO was 5%) were added to a buffer solution for kinase reaction (20 mM HEPES (pH 7.5), 2 mM dithiotheitol, 0.01% Triton X-100), and after the solution was incubated for 40 minutes at 25° C., a kinase reaction was carried out. The reaction was terminated by adding EDTA thereto in order to obtain a final concentration of 30 mM. Finally, a substrate peptide that was not phosphorylated (S) and a phosphorylated peptide (P) were separated and detected by microchannel capillary electrophoresis using a LabChip EZ Reader II (PerkinElmer, Inc.).

[2] = system: purified recombinant human EGFR protein / BTK; experiment: BTK inhibition selectivity compared with EGFR kinase inhibitory activity (in vitro); format: biochemical; conditions: EGFR assay ATP 1.5 μM
Experimental: 1) Measurement of BTK Inhibitory Activity
2) Measurement of EGFR Inhibitory Activity
Therefore, a biotinated peptide (biotin-[…]) was produced by referring to the amino acid sequence of the peptide. The purified recombinant human EGFR protein used in the test was purchased from Carna Biosciences, Inc.
With regard to the measurement of the inhibitory activity of the compounds, firstly, the compounds of the present invention were diluted stepwise with dimethyl sulfoxide (DMSO). […] The reaction was terminated by adding EDTA thereto in order to obtain a final concentration of 24 mM. Subsequently, a detection liquid containing Eu-labeled anti-phosphorylated tyrosine antibody PT66 (PerkinElmer, Inc.) and […] APC-SA (PerkinElmer, Inc.) was added thereto, and the system was left to stand for 2 hours or longer at room temperature.
3) BTK Inhibition Selectivity

Sequence of purified recombinant human BTK protein (Q06187 whole entry): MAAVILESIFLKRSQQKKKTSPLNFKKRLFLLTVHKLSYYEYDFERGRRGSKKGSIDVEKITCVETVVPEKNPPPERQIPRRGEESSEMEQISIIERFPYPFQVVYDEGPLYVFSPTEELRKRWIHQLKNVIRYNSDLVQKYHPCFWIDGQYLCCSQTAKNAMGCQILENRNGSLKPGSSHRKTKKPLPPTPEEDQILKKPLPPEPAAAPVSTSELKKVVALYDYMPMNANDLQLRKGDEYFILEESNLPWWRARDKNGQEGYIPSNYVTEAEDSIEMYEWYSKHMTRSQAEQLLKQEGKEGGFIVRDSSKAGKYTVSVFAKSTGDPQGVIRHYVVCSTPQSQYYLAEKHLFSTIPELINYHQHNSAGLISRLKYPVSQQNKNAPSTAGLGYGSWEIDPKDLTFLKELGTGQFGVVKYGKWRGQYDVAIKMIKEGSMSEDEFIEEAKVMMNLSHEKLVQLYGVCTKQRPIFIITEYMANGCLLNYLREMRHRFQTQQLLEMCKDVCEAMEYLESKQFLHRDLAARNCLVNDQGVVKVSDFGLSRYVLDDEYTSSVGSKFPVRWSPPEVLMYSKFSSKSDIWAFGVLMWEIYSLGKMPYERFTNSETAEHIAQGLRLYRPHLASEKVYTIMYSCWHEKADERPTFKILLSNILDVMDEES

IC50 [1]	EGFR inhibitory activity IC50 value (nM)/BTK inhibitory activity IC50 value (nM) [2]	Compound	A431 cell proliferation inhibition ratio/TMD8 cell proliferation inhibitio ratio (A431 cells / TMD8 cells)
0.733 nM	158.1	CCN(C)C/C=C/C(=O)N1CCC[C@@H](n2nc(C(=O)Nc3nc4cc(Cl)ccc4o3)c3c(N)ncnc32)C1 [Example 16, (R,E)-4-amino-N-(5-chlorobenzo[d]oxazol-2-yl)-1-(1-(4-(ethyl(methyl)amino)but-2-enoyl)piperidin-3-yl)-1H-pyrazolo[3,4-d]pyrimidine-3-carboxamide]	>16313.2
–	100.7	C=CC(=O)N[C@H]1CC[C@@H](n2nc(C(=O)Nc3nc4cc(Cl)ccc4o3)c3c(N)ncnc32)CC1 [Example 78, 1-((1S,4S)-4-acrylamidocyclohexyl)-4-amino-N-(5-chlorobenzo[d]oxazol-2-yl)-1H-pyrazolo[3,4-d]pyrimidine-3-carboxamide]	>23596.7
–	10.9	C=CC(=O)N1CCC(n2nc(C(=O)Nc3nc4ccccc4o3)c3c(N)ncnc32)C1 (stereo not drawn) [Example 82, 1-(1-acryloylpyrrolidin-3-yl)-4-amino-N-(benzo[d]oxazol-2-yl)-1H-pyrazolo[3,4-d]pyrimidine-3-carboxamide]	8143.0
–	39.6	C=CC(=O)N1CCC(n2nc(C(=O)Nc3nc4cc(F)ccc4o3)c3c(N)ncnc32)C1 (stereo not drawn) [Example 83, 1-(1-acryloylpyrrolidin-3-yl)-4-amino-N-(5-fluorobenzo[d]oxazol-2-yl)-1H-pyrazolo[3,4-d]pyrimidine-3-carboxamide]	>18797.0
7.34 nM	20.4	(E)-4-amino-N-(5-chlorobenzo[d]oxazol-2-yl)-7-(1-(4-(dimethylamino)but-2-enoyl)azetidin-3-yl) 7H-pyrrolo[2,3-d]pyrimidine-5-carboxamide [Example 47]	–

The next lines start with the compound.

Compound	IC50 [1]	EGFR inhibitory activity IC50 value (nM)/BTK inhibitory activity IC50 value (nM) [2]	A431 cell proliferation inhibition ratio/TMD8 cell proliferation inhibitio ratio (A431 cells / TMD8 cells)
C=CC(=O)N1CCC[C@@H](n2nc(C(=O)Nc3nc4ncccc4o3)c3c(N)ncnc32)C1 [Example 9, (R)-1-(1-acryloylpiperidin-3-yl)-4-amino-N-(oxazolo[4,5-b]pyridin-2-yl)-1H-pyrazolo[3,4-d]pyrimidine-3-carboxamide]	1.37 nM	28.4	8196.7
CN(C)C/C=C/C(=O)N1CCC[C@@H](n2nc(C(=O)Nc3nc4cc(Cl)ccc4o3)c3c(N)ncnc32)C1 [Example 15, (R,E)-4-amino-N-(5-chlorobenzo[d]oxazol-2-yl)-1-(1-(4-(dimethylamino)but-2-enoyl)piperidin-3-yl)-1H-pyrazolo[3,4-d]pyrimidine-3-carboxamide]	0.786 nM	145.0	16442.0
CCN(CC)C/C=C/C(=O)N1CCC[C@@H](n2nc(C(=O)Nc3nc4cc(Cl)ccc4o3)c3c(N)ncnc32)C1 [Example 17, (R,E)-4-amino-N-(5-chlorobenzo[d]oxazol-2-yl)-1-(1-(4-(diethylamino)but-2-enoyl)piperidin-3-yl)-1H-pyrazolo[3,4-d]pyrimidine-3-carboxamide]	0.811 nM	157.2	>12345.7
CC(C)N(C)C/C=C/C(=O)N1CCC[C@@H](n2nc(C(=O)Nc3nc4cc(Cl)ccc4o3)c3c(N)ncnc32)C1 [Example 18, (R,E)-4-amino-N-(5-chlorobenzo[d]oxazol-2-yl)-1-(1-(4-(isopropyl(methyl)amino)but-2-enoyl)piperidin-3-yl)-1H-pyrazolo[3,4-d]pyrimidine-3-carboxamide]	0.788 nM	121.3	>15625.0
Nc1ncnc2c1c(C(=O)Nc1nc3cc(-c4ccccc4)ccc3o1)cn2[C@@H]1CCN(C(=O)/C=C/CN2CCCC2)C1 [Example 60, (R,E)-4-amino-N-(5-phenylbenzo[d]oxazol-2-yl)-7-(1-(4-(pyrrolidin-1-yl)but-2-enoyl)pyrrolidin-3-yl) 7H-pyrrolo[2,3-d]pyrimidine-5-carboxamide]	1.88 nM	32.4	–
Nc1ncnc2c1c(C(=O)Nc1nc3cc(-c4ccccc4)ccc3o1)cn2[C@@H]1CCN(C(=O)/C=C/CN2CCCCC2)C1 [Example 61, (R,E)-4-amino-N-(5-phenylbenzo[d]oxazol-2-yl)-7-(1-(4-(piperidin-1-yl)but-2-enoyl)pyrrolidin-3-yl) 7H-pyrrolo[2,3-d]pyrimidine-5-carboxamide]	2.34 nM	67.5	–
CN(C)C/C=C/C(=O)N1CC[C@H](n2nc(C(=O)Nc3nc4ccccc4o3)c3c(N)ncnc32)C1 [Example 73, (S,E)-4-amino-N-(benzo[d]oxazol-2-yl)-1-(1-(4-(dimethylamino)but-2-enoyl)pyrrolidin-3-yl)-1H-pyrazolo[3,4-d]pyrimidine-3-carboxamide]	259 nM	11.2	–
C=CC(=O)N1CC(Cn2nc(C(=O)Nc3nc4cc(F)ccc4o3)c3c(N)ncnc32)C1 [Example 75, 1-((1-acryloylazetidin-3-yl)methyl)-4-amino-N-(5-fluorobenzo[d]oxazol-2-yl)-1H-pyrazolo[3,4-d]pyrimidine-3-carboxamide]	–	58.2	>1643.7
C=CC(=O)N1CC(Cn2nc(C(=O)Nc3nc4cc(Cl)ccc4o3)c3c(N)ncnc32)C1 [Example 76, 1-((1-acryloylazetidin-3-yl)methyl)-4-amino-N-(5-chlorobenzo[d]oxazol-2-yl)-1H-pyrazolo[3,4-d]pyrimidine-3-carboxamide]	–	11.4	>2345.8
C=CC(=O)N1CCC(Cn2nc(C(=O)Nc3nc4cc(F)ccc4o3)c3c(N)ncnc32)CC1 [Example 77, 1-((1-acryloylpiperidin-4-yl)methyl)-4-amino-N-(5-fluorobenzo[d]oxazol-2-yl)-1H-pyrazolo[3,4-d]pyrimidine-3-carboxamide]	–	203.7	>6793.5
C=CC(=O)N1CCC(Cn2nc(C(=O)Nc3nc4cc(Cl)ccc4o3)c3c(N)ncnc32)CC1 [Example 80, 1-((1-acryloylpiperidin-4-yl)methyl)-4-amino-N-(5-chlorobenzo[d]oxazol-2-yl)-1H-pyrazolo[3,4-d]pyrimidine-3-carboxamide]	–	75.4	14348.9
C=CC(=O)N[C@H]1CC[C@@H](n2nc(C(=O)Nc3nc4cc(F)ccc4o3)c3c(N)ncnc32)CC1 [Example 81, 1-((1S,4S)-4-acrylamidocyclohexyl)-4-amino-N-(5-fluorobenzo[d]oxazol-2-yl)-1H-pyrazolo[3,4-d]pyrimidine-3-carboxamide]	–	204.9	8346.7
